Assay results: patent EP2540163A1, “Nematocide N-cyclopropyl-sulfonylamide derivatives” (Bayer CropScience AG, priority 2011, dated 2013)

System: not listed separately
Assay: logP by HPLC on reversed-phase column (C 18), EEC Directive 79/831 Annex V.A8, Method A (0.1% aqueous phosphoric acid / acetonitrile, 43°C)
Format: physicochemical
Conditions: c18 reversed-phase hplc; LogP method A: HPLC reversed-phase C 18, 43°C, 0.1% aqueous phosphoric acid / acetonitrile
Method: Calibration was carried out using unbranched alkan-2-ones (having 3 to 16 carbon atoms) with known logP values (determination of the logP values by the retention times using linear interpolation between two successive alkanones).

chromatographic logP | Compound
2.97 | Cc1c(C(=O)N(C2CC2)S(=O)(=O)c2ccccc2Cl)cnn1-c1ccccc1 [compound 201]
3.27 | Cn1nc(C(F)(F)F)c(C(=O)N(C2CC2)S(=O)(=O)c2ccccc2Cl)c1Cl [compound 208]
3.19 | Cc1nn(C)c(F)c1C(=O)N(C1CC1)S(=O)(=O)c1ccc(C(F)(F)F)cc1Cl [compound 213]
3.94 | Cc1nn(C)c(Oc2cccc(Cl)c2)c1C(=O)N(C1CC1)S(=O)(=O)c1cccc(Cl)c1 [compound 399]
3.76 | Cc1nn(C)c(Cl)c1C(=O)N(C1CC1)S(=O)(=O)c1ccc(Cl)c(C(F)(F)F)c1 [compound 406]
3 | Cc1n[nH]c(C)c1C(=O)N(C1CC1)S(=O)(=O)c1ccc(Cl)c(C(F)(F)F)c1 [compound 408]
2.74 | Cc1n[nH]c(C)c1C(=O)N(C1CC1)S(=O)(=O)c1ccc(Cl)c(Cl)c1 [compound 409]
3.37 | Cc1nn(C)c(C)c1C(=O)N(C1CC1)S(=O)(=O)c1ccc(Cl)c(C(F)(F)F)c1 [compound 411]
3.21 | Cc1nn(C)c(C)c1C(=O)N(C1CC1)S(=O)(=O)c1ccc(Cl)c(Cl)c1 [compound 412]
2.8 | Cc1nn(C)c(C)c1C(=O)N(C1CC1)S(=O)(=O)c1ccc(Cl)cc1Cl [compound 413]
3.08 | Cc1nn(C)c(F)c1C(=O)N(C1CC1)S(=O)(=O)c1cnc(Cl)c(Br)c1 [compound 447]
4.18 | CCc1onc(C(C)C)c1C(=O)N(C1CC1)S(=O)(=O)c1cccc(Cl)c1 [compound 589]
4.82 | CCc1onc(C(C)C)c1C(=O)N(C1CC1)S(=O)(=O)c1ccc(Cl)c(C(F)(F)F)c1 [compound 594]
4.77 | CCc1onc(C(C)C)c1C(=O)N(C1CC1)S(=O)(=O)c1ccc(Cl)c(Cl)c1 [compound 595]
1.97 | Cn1nc(C(=O)N(C2CC2)S(=O)(=O)c2ccccc2Cl)n(C)c1=O [compound 608]
2.01 | CCc1c(C(=O)N(C2CC2)S(=O)(=O)c2cccc(Cl)c2)sc(=O)n1C1CC1 [compound 615]
2.01 | Cc1c(C(=O)N(C2CC2)S(=O)(=O)c2ccc(Cl)c(C(F)(F)F)c2)sc(=O)n1C [compound 622]
3.01 | Cc1c(C(=O)N(C2CC2)S(=O)(=O)c2ccc(Cl)c(C(F)(F)F)c2)sc(=O)n1Cc1ccccc1 [compound 625]
4.08 | CCc1c(C(=O)N(C2CC2)S(=O)(=O)c2ccc(Cl)c(Cl)c2)sc(=O)n1C1CC1 [compound 630]
3.01 | CC(C)c1c(C(=O)N(C2CC2)S(=O)(=O)c2ccc(Cl)c(C(F)(F)F)c2)sc(=O)n1C1CC1 [compound 633]
2.3 | O=C(c1cccnc1)N(C1CC1)S(=O)(=O)c1cccc(Cl)c1 [compound 642]
2.58 | O=C(c1cccnc1Cl)N(C1CC1)S(=O)(=O)c1ccccc1Cl [compound 644]
3.57 | Cc1cc(C)c(C(=O)N(C2CC2)S(=O)(=O)c2cccc(Cl)c2Cl)c(Cl)n1 [compound 650]
2.78 | CC1=C(C(=O)N(C2CC2)S(=O)(=O)c2ccccc2Cl)OCCS1 [compound 652]
3.2 | O=C(C1=C(C(F)(F)F)OCCS1)N(C1CC1)S(=O)(=O)c1ccccc1Cl [compound 653]

The next lines start with the compound.

Compound | chromatographic logP
Cc1nc(C(=O)N(C2CC2)S(=O)(=O)c2ccc(Cl)c(C(F)(F)F)c2)cs1 [compound 69] | 3.63
Cc1nn(C)c(F)c1C(=O)N(C1CC1)S(=O)(=O)c1cccc(Cl)c1Cl [compound 210] | 2.77
COc1nn(C)cc1C(=O)N(C1CC1)S(=O)(=O)c1ccccc1Cl [compound 211] | 1.94
Cc1nn(C)c(F)c1C(=O)N(C1CC1)S(=O)(=O)c1ccc(Cl)c(Cl)c1Cl [compound 212] | 3.35
Cn1cc(C(=O)N(C2CC2)S(=O)(=O)c2ccccc2Cl)c(I)n1 [compound 214] | 2.31
Cc1nn(C)c(C)c1C(=O)N(C1CC1)S(=O)(=O)c1ccccc1Cl [compound 215] | 2.17
Cc1nn(C)c(F)c1C(=O)N(C1CC1)S(=O)(=O)c1c(Cl)cccc1Cl [compound 218] | 2.52
Cc1n[nH]c(C)c1C(=O)N(C1CC1)S(=O)(=O)c1ccc(C(F)(F)F)cc1 [compound 402] | 2.58
Cc1nn(C)c(Oc2cccc(Cl)c2)c1C(=O)N(C1CC1)S(=O)(=O)c1ccc(Cl)c(C(F)(F)F)c1 [compound 404] | 4.56
Cc1nn(C)c(Oc2cccc(Cl)c2)c1C(=O)N(C1CC1)S(=O)(=O)c1ccc(Cl)c(Cl)c1 [compound 405] | 4.46
Cc1nn(C)c(Cl)c1C(=O)N(C1CC1)S(=O)(=O)c1ccc(Cl)c(Cl)c1 [compound 407] | 3.63
Cc1nn(C)c(F)c1C(=O)N(C1CC1)S(=O)(=O)c1cc(Cl)sc1Cl [compound 435] | 3.16
Cc1nn(C)c(F)c1C(=O)N(C1CC1)S(=O)(=O)c1cccnc1Cl [compound 446] | 1.96
CCc1onc(C(C)C)c1C(=O)N(C1CC1)S(=O)(=O)c1ccc(Cl)cc1Cl [compound 596] | 4.41
COCCn1c(C)c(C(=O)N(C2CC2)S(=O)(=O)c2cccc(Cl)c2)sc1=O [compound 609] | 2.01
Cc1c(C(=O)N(C2CC2)S(=O)(=O)c2cccc(Cl)c2)sc(=O)n1Cc1ccccc1 [compound 613] | 2.01
CC(C)c1c(C(=O)N(C2CC2)S(=O)(=O)c2cccc(Cl)c2)sc(=O)n1C1CC1 [compound 617] | 2.01
COCCn1c(C)c(C(=O)N(C2CC2)S(=O)(=O)c2ccc(Cl)c(C(F)(F)F)c2)sc1=O [compound 619] | 2.01
COCCn1c(C)c(C(=O)N(C2CC2)S(=O)(=O)c2ccc(Cl)cc2Cl)sc1=O [compound 620] | 2.01
Cc1c(C(=O)N(C2CC2)S(=O)(=O)c2ccc(Cl)c(Cl)c2)sc(=O)n1C [compound 623] | 2.01
Cc1c(C(=O)N(C2CC2)S(=O)(=O)c2ccc(Cl)c(Cl)c2)sc(=O)n1Cc1ccccc1 [compound 626] | 3.01
Cc1c(C(=O)N(C2CC2)S(=O)(=O)c2ccc(Cl)cc2Cl)sc(=O)n1Cc1ccccc1 [compound 627] | 4.03
CCc1c(C(=O)N(C2CC2)S(=O)(=O)c2ccc(Cl)cc2Cl)sc(=O)n1C1CC1 [compound 631] | 2.01
CC(C)c1c(C(=O)N(C2CC2)S(=O)(=O)c2ccc(Cl)c(Cl)c2)sc(=O)n1C1CC1 [compound 634] | 3.01
CC(C)c1c(C(=O)N(C2CC2)S(=O)(=O)c2ccc(Cl)cc2Cl)sc(=O)n1C1CC1 [compound 635] | 2.01
O=C(c1cccnc1)N(C1CC1)S(=O)(=O)c1ccc(Cl)c(C(F)(F)F)c1 [compound 638] | 3.1
O=C(c1cccnc1)N(C1CC1)S(=O)(=O)c1ccc(Cl)c(Cl)c1 [compound 639] | 2.91
O=C(c1cccnc1Cl)N(C1CC1)S(=O)(=O)c1cccc(Cl)c1 [compound 643] | 2.91
Cc1cc(C)c(C(=O)N(C2CC2)S(=O)(=O)c2ccc(Cl)c(Cl)c2Cl)c(Cl)n1 [compound 651] | 4.16
Cc1cc(C(=O)N(C2CC2)S(=O)(=O)c2ccccc2Cl)nc(Cl)n1 [compound 654] | 2.93

Same assay, conditions: c18 reversed-phase hplc; LogP method A: HPLC, 43°C, 0.1% aqueous phosphoric acid, acetonitrile, gradient 10% to 90% acetonitrile

chromatographic logP | Compound
4.44 | Cc1nn(C)c(F)c1C(=O)N(C1(c2ccc(Cl)cc2)CC1)S(=O)(=O)c1cccc(Cl)c1Cl [compound 669]
3.27 | Cc1nn(C)c(F)c1C(=O)N(C1CC1c1ccccc1)S(=O)(=O)c1ccccc1Cl (centres unmarked) [compound 676]

System: Meloidogyne incognita
Assay: not given
Format: in vivo
Conditions: 336 h, 20 ppm
Method: Meloidogyne incognita - test
To produce a suitable preparation of active compound, 1 part by weight of active compound is mixed with the stated amount of solvent, and the concentrate is diluted with emulsifier-containing water to the desired concentration.
Vessels are filled with sand, a solution of the active ingredient, a suspension containing eggs and larvae of Meloidogyne incognita and salad seeds. The salad seeds germinate and the seedlings grow. Galls develop in the roots.
After 14 days the nematicidal activity is determined on the basis of the percentage of gall formation. 100% means that no galls were found; 0% means that the number of galls found on the roots of the treated plants was equal to that in untreated control plants.

Compound | nematicidal activity determined on the basis of the percentage of gall formation [%]
Cc1nc(C(=O)N(C2CC2)S(=O)(=O)c2ccc(Cl)c(C(F)(F)F)c2)cs1 [compound 69] | 80
O=C(c1cccnc1)N(C1CC1)S(=O)(=O)c1ccc(Cl)c(C(F)(F)F)c1 [compound 638] | 100
